# Experimental data as given in the METLIN SMRT retention time set (Domingo-Almenara et al. 2019).
# Assay: gradient 5% acetonitrile 3 min, to 50% in 2 min, to 85% in 15 min, held 3 min, 100 µL/min
# Settings: column: Zorbax Extend-C18 2.1 x 50 mm; eluents: water / acetonitrile, 0.1% formic acid
# Method in brief: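 Each retention time is based on an adduct peak selected computationally and verified by manual inspection. Measurements used HPLC–quadrupole time-of-flight mass spectrometry in positive and negative ionization mode on mixtures of ~100 pure standards. Chromatography ran on a Zorbax Extend-C18 column (2.1 × 50 mm, 1.8 μm) at 100 μL/min with water and acetonitrile, each containing 0.1% formic acid, and dead and dwell volumes of 40 μL and 900 μL.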
row,SMILES,RP-LC retention time [s]
1,O=C(Nc1nc2c(s1)CN(C(=O)c1cc(C3CC3)on1)CC2)c1ccco1,710
2,Cc1ccc(NC(=O)N2CCCC2c2nc(-c3ccccc3C)no2)cc1 (configuration not stated),598
3,CCN(CC)CCCNC(=O)CCc1c(-c2ccc(Cl)cc2)nc2ccccn12,558
4,CC(C)n1nc2c(S(=O)(=O)N3CCOCC3)cccn2c1=O,670
5,CC(=O)c1cccc(NC(=O)N2CCc3nc[nH]c3C2)c1,556
6,CC1CCN(c2cc(N3CCN(C)CC3)ccc2NC(=O)c2cc(C#N)c[nH]2)CC1,595
7,Cn1nc(C(=O)N2CCCCC2)c2c1CCN(C(=O)CCC(=O)NC1CCCCC1)C2,681
8,CN(C)C(=O)c1ccc2c(c1)N(CC(=O)NCc1ccc(Cl)cc1)C(=O)CO2,707
9,Cn1cc(-c2nc(C(=O)Nc3ccc(Cl)cc3F)cs2)c2cccnc21,1260
10,Cc1ccc(-c2nc3ncccn3c2NCc2ccccc2)cc1,729
11,Cc1nnc(N2CCC(C(=O)N3CCCC3)CC2)c2nn(-c3ccccc3)c(C)c12,658
12,O=C(Nc1cccc(F)c1)C1CCN(C(=O)c2ncn3c2COC(c2ccccc2)C3)CC1 (configuration not stated),921
13,CCCN(CC1CC1)C(=O)CCC1CCCN(S(=O)(=O)c2ccc(C)cc2)C1 (configuration not stated),1120
14,Cn1cc(CN2CCC(C(=O)NCCN3CCN(c4ccccc4)CC3)CC2)c2ccccc21,571
15,Cc1cccc(NC(=O)C2CCc3nc(N4CCOCC4)ncc3C2)c1C (configuration not stated),698
16,Cc1ccnc(N2CCC(C(=O)NCCCN3CCCCCC3)CC2)n1,556
17,O=C1CN(C(=O)COc2cccc3ccccc23)c2ccccc2N1,861
18,Cc1ccc(C(C)NC(=O)C2CCN(c3nccnc3Oc3cccc(C)c3)CC2)cc1 (configuration not stated),1070
19,Cc1ccc(Nc2nc(C(=O)NCCc3cccs3)nc3ccccc23)cc1,840
20,CC1=C(c2ccccc2)S(=O)(=O)N=C1N1CCCN(C(=O)c2ccc(Cl)s2)CC1,896

row,SMILES,RP-LC retention time [s]
1,COc1ccc(NC(=O)Cc2nnc3ccc(C(=O)Nc4ccccc4)cn23)cc1,749
2,CCn1cnc2cc(CNC(=O)Cc3ccsc3)ccc21,578
3,CC(CNC(=O)Cc1csc2nc(-c3ccccc3)cn12)c1ccccc1 (configuration not stated),841
4,Cc1ccc(CN(C)Cc2cc(=O)n3ccccc3n2)cc1,606
5,O=c1ccc(-c2ccncc2)nn1CCCNS(=O)(=O)c1cccs1,571
6,O=C(COc1cc(O)c2c(=O)cc(-c3ccccc3)oc2c1)OCc1ccccc1,1200
7,O=C(Cc1cccc(F)c1)N1CCCC1c1nc(-c2ccc(F)cc2)no1 (configuration not stated),1010
8,CC(C)NC(=O)NCCC1CCN(S(=O)(=O)c2ccccc2)CC1,732
9,O=S(=O)(NCC(c1ccccc1)S(=O)(=O)c1cccs1)c1cccs1 (configuration not stated),878
10,COC(=O)c1ccccc1NC(=O)CCn1c(=O)oc2ccccc21,825
11,O=C(Nc1ccc(F)c(Cl)c1)c1cccn1Cc1noc(C2CC2)n1,998
12,Cc1ccc(-c2csc(NC(=O)C(C)(C)C)n2)cc1,1080
13,CCNc1ccccc1C(=O)O,782
14,Cc1cc(C)c2c(N3CCSCC3)nc(C(=O)NCc3cccs3)nc2n1,746
15,O=C(c1ccco1)N1CCCn2nc(-c3cccs3)cc2C1,750
16,CC(C)c1nnc2n1CCN(C(=O)c1ccsc1)C2,596
17,CC(C)N1C(=O)c2cccnc2Sc2cc(NC(=O)c3cccnc3)ccc21,662
18,CN(CCc1noc(-c2ccc(C(=O)N3CCCCC3)cc2)n1)C(=O)c1ccc(Br)o1,782
19,Cc1nnc2n1CCC(N(C)C(=O)c1cc(C3CC3)[nH]n1)CC2 (configuration not stated),530
20,Cc1nc(C)c(C(=O)N2CCCC2c2nc(CCOCC3CCCC3)no2)s1 (configuration not stated),905

# Results, then the compound that gave them:
row,RP-LC retention time [s],SMILES
1,1110,CCOC(=O)c1nc(N2CCN(c3ccc(C)cc3C)CC2)c2ccccc2n1
2,880,CCCn1cc(C(=O)NC(C)CC)c2nn(-c3ccccc3)c(=O)c-2c1 (configuration not stated)
3,949,COc1ccc(NC(=O)Cn2nc(N3CCSCC3)c3ccccc3c2=O)cc1Cl
4,638,CCc1nnc2nc(N3CCN(C(=O)c4ccc(Br)cc4)CC3)cc(C)n12
5,741,COc1cc(OC)c(NC(=O)NCC(c2cccnc2)c2cn(C)c3ccccc23)cc1Cl (configuration not stated)
6,1070,COc1cc(Cl)ccc1C(=O)N1CCCC1c1nc(-c2ccccc2)no1 (configuration not stated)
7,964,O=C(Nc1ccc2c(c1)OCO2)C1CCCN(S(=O)(=O)Cc2ccc(Cl)cc2)C1 (configuration not stated)
8,724,Cn1ccc2c(cc(C(=O)NCc3cccc(Cl)c3)n2C)c1=O
9,699,COC1CN(c2cccc(F)c2)C12CCN(Cc1ccccn1)CC2 (configuration not stated)
10,650,Cc1c2cnn(CC(=O)N3CCN(c4ccccn4)CC3)c(=O)c2c(C)n1Cc1ccccc1F
11,570,COc1cc(OC)c(OC)cc1CN1C[C@@H]2C(=O)N(C)C(=O)[C@@H]2C1
12,630,CCN(CC)c1ccc(NC(=O)CN2C(=O)C(C)(C)c3ccccc32)c(C)c1
13,862,COc1cc(NC(=O)N2CC(C)Oc3ccccc32)cc(OC)c1OC (configuration not stated)
14,723,CCOc1ncccc1C(=O)Nc1c(C)nc2sc(C)c(C)n2c1=O
15,1060,COc1cc(OC)cc(-c2nnc(Cc3nc(-c4ccccc4C)no3)o2)c1
16,679,CCN(CC)S(=O)(=O)c1ccc2c(c1)cc(C(=O)NCCCN1CCCCC1C)n2C (configuration not stated)
17,1150,Cc1cccc(Oc2nccnc2N2CCC(C(=O)NC(C)c3ccc(C)cc3C)CC2)c1 (configuration not stated)
18,1110,CCNC(=O)CCc1nc2ccccc2n(CC(=O)NCc2cccc(OC)c2OC)c1=O
19,726,Cc1cccc(OCC(=O)Nc2nnc(C3CC(=O)N(c4ccccc4)C3)o2)c1C (configuration not stated)
20,907,CC1(C)CC(=O)c2cn(-c3ccc(Cl)cc3)c(=O)c(C(=O)O)c2C1
21,872,COc1ccc(-c2ccnc3nc(-c4ccccc4OC)nn23)c(F)c1
22,854,COCCCNC(=O)C1CCN(C(=O)c2ccc(-n3c(C)cc4ccccc43)s2)CC1
23,751,COC(=O)c1cc2c(=O)n(-c3cc(OC)c(OC)c(OC)c3)ccc2nc1C
24,675,COc1ccc2[nH]c3c(c2c1)CCNC31CCN(S(=O)(=O)c2c(C)noc2C)CC1
25,836,Cc1cccc(CN2CCN(C3CCN(C(=O)Nc4ccc5c(c4)OCO5)CC3)C2=O)c1
26,682,COc1cc(NC(=O)CSc2ccc(N3CCOCC3)nn2)cc(OC)c1
27,692,O=C(NCCc1cccs1)c1ccc(CN2CC(=O)N3CCCCC3C2=O)cc1 (configuration not stated)
